Measured values reported in patent publication US20230129258A1, “HETEROTANDEM BICYCLIC PEPTIDE COMPLEXES” (BicycleTx Limited, priority 2019, published 2023).
Like-named read-outs stand apart in the source and are kept apart here.

Molecular target: CD137 (Homo sapiens, UniProt Q07011)
Assay: CD137 reporter assay (Promega CD137 luciferase reporter, Jurkat cells) in co-culture with Nectin-4-expressing tumor cells
Format: cell-based
Parameters: host or cells: Jurkat reporter cells
[1] = co-culture with HT1376, Table 2A
[2] = EC50 (nM), co-culture with HT1376, Table 2A

CD137, sequence (Q07011 24-255): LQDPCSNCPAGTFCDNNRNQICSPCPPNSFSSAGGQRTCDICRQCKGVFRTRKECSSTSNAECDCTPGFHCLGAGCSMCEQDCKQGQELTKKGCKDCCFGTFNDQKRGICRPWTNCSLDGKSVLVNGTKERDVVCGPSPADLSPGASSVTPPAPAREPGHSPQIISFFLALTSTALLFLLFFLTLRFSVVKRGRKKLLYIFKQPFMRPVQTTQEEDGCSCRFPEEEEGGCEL

For `CCCC[C@@H]1NC(=O)[C@H](Cc2ccc(O)cc2)NC(=O)[C@@H]2CCCN2C(=O)[C@H](CC(=O)O)NC(=O)[C@H](C)NC(=O)[C@H](Cc2ccccc2)NC(=O)[C@@H]2CSCCC(=O)N3CN(CN(C3)C(=O)CCSC[C@@H](C(=O)N[C@@H](C)C(N)=O)NC1=O)C(=O)CCSC[C@H](NC(C)=O)C(=O)N[C@@H](CC(C)(C)C)C(=O)N1CCC[C@H]1C(=O)N[C@@H](CCC(=O)O)C(=O)N[C@H](CCCCNC(=O)CCc1cn(CCOCCOCCOCCOCCOCCOCCOCCOCCOCCOCCNC(=O)CCOCC(COCCC(=O)NCCOCCOCCOCCOCCOCCOCCOCCOCCOCCOCCn3cc(CCC(=O)NCCCC[C@H]4NC(=O)[C@H](CCC(=O)O)NC(=O)[C@@H]5CCCN5C(=O)[C@H](CC(C)(C)C)NC(=O)[C@@H](NC(C)=O)CSCCC(=O)N5CN6CN(C5)C(=O)CCSC[C@H](NC(=O)[C@H](Cc5ccc(O)cc5)NC(=O)[C@@H]5CCCN5C4=O)C(=O)N[C@@H](Cc4ccccc4)C(=O)N[C@@H](C)C(=O)N[C@@H](CC(=O)O)C(=O)N4CCC[C@H]4C(=O)N[C@@H](Cc4ccc(O)cc4)C(=O)N[C@@H](CCCC)C(=O)N[C@H](C(=O)N[C@@H](C)C(N)=O)CSCCC6=O)nn3)(COCCC(=O)NCCOCCOCCOCCOCCOCCOCCOCCOCCOCCOCCn3cc(CCC(=O)NCCCC[C@H]4NC(=O)[C@H](CCC(=O)O)NC(=O)[C@@H]5CCCN5C(=O)[C@H](CC(C)(C)C)NC(=O)[C@@H](NC(C)=O)CSCCC(=O)N5CN6CN(C5)C(=O)CCSC[C@H](NC(=O)[C@H](Cc5ccc(O)cc5)NC(=O)[C@@H]5CCCN5C4=O)C(=O)N[C@@H](Cc4ccccc4)C(=O)N[C@@H](C)C(=O)N[C@@H](CC(=O)O)C(=O)N4CCC[C@H]4C(=O)N[C@@H](Cc4ccc(O)cc4)C(=O)N[C@@H](CCCC)C(=O)N[C@H](C(=O)N[C@@H](C)C(N)=O)CSCCC6=O)nn3)COCCC(=O)NCCOCCOCCOCCOCCOCCOCCOCCOCCOCCOCCn3cc(CCC(=O)NCCC(=O)N[C@H]4CSCCC(=O)N5CN6CN(C5)C(=O)CCSC[C@H](NC(=O)[C@@H](CC(=O)O)NC(=O)[C@H](Cc5cccc7ccccc57)NC(=O)[C@@H]5CCCN5C4=O)C(=O)N[C@@H](CCSC)C(=O)N[C@@H](CCCCNC(=N)N)C(=O)N[C@@H](CC(=O)O)C(=O)N[C@@H](Cc4c[nH]c5ccccc45)C(=O)N[C@@H](CO)C(=O)N[C@@H]([C@@H](C)O)C(=O)N4CCC[C@H]4C(=O)N4C[C@H](O)C[C@H]4C(=O)N[C@@H](Cc4c[nH]c5ccccc45)C(=O)N[C@H](C(N)=O)CSCCC6=O)nn3)nn1)C(=O)N1CCC[C@H]1C(=O)N[C@@H](Cc1ccc(O)cc1)C(=O)N2` [BCY11022], the EC50 was 0.2 nM and the Emax [1] was 66 fold induction over background.

`CCCC[C@@H]1NC(=O)[C@H](Cc2ccc(O)cc2)NC(=O)[C@@H]2CCCN2C(=O)[C@H](CC(=O)O)NC(=O)[C@H](C)NC(=O)[C@H](Cc2ccccc2)NC(=O)[C@@H]2CSCCC(=O)N3CN(CN(C3)C(=O)CCSC[C@@H](C(=O)N[C@@H](C)C(N)=O)NC1=O)C(=O)CCSC[C@H](NC(C)=O)C(=O)N[C@@H](CC(C)(C)C)C(=O)N1CCC[C@H]1C(=O)N[C@@H](CCC(=O)O)C(=O)N[C@H](CCCCNC(=O)CCc1cn(CCOCCOCCOCCOCCOCCOCCOCCOCCOCCOCCNC(=O)CCOCCN(CCOCCC(=O)NCCOCCOCCOCCOCCOCCOCCOCCOCCOCCOCCn3cc(CCC(=O)NCCCC[C@H]4NC(=O)[C@H](CCC(=O)O)NC(=O)[C@@H]5CCCN5C(=O)[C@H](CC(C)(C)C)NC(=O)[C@@H](NC(C)=O)CSCCC(=O)N5CN6CN(C5)C(=O)CCSC[C@H](NC(=O)[C@H](Cc5ccc(O)cc5)NC(=O)[C@@H]5CCCN5C4=O)C(=O)N[C@@H](Cc4ccccc4)C(=O)N[C@@H](C)C(=O)N[C@@H](CC(=O)O)C(=O)N4CCC[C@H]4C(=O)N[C@@H](Cc4ccc(O)cc4)C(=O)N[C@@H](CCCC)C(=O)N[C@H](C(=O)N[C@@H](C)C(N)=O)CSCCC6=O)nn3)CCOCCC(=O)NCCOCCOCCOCCOCCOCCOCCOCCOCCOCCOCCn3cc(CCC(=O)N[C@H]4CSCCC(=O)N5CN6CN(C5)C(=O)CCSC[C@H](NC(=O)[C@@H](CC(=O)O)NC(=O)[C@H](Cc5cccc7ccccc57)NC(=O)[C@@H]5CCCN5C4=O)C(=O)N[C@@H](CCSC)C(=O)N[C@@H](CCCCNC(=N)N)C(=O)N[C@@H](CC(=O)O)C(=O)N[C@@H](Cc4c[nH]c5ccccc45)C(=O)N[C@@H](CO)C(=O)N[C@@H]([C@@H](C)O)C(=O)N4CCC[C@H]4C(=O)N4C[C@H](O)C[C@H]4C(=O)N[C@@H](Cc4c[nH]c5ccccc45)C(=O)N[C@H](C(N)=O)CSCCC6=O)nn3)nn1)C(=O)N1CCC[C@H]1C(=O)N[C@@H](Cc1ccc(O)cc1)C(=O)N2` [BCY11027] was tested, and the EC50 [2] was 0.18 nM.

In the case of `CCCC[C@@H]1NC(=O)[C@H](Cc2ccc(O)cc2)NC(=O)[C@@H]2CCCN2C(=O)[C@H](CCC(=O)O)NC(=O)[C@H](C)NC(=O)[C@H](Cc2ccccc2)NC(=O)[C@@H]2CSCCC(=O)N3CN(CN(C3)C(=O)CCSC[C@H](NC(C)=O)C(=O)N[C@@H](CC(C)(C)C)C(=O)N3CCC[C@H]3C(=O)N[C@@H](CCC(=O)O)C(=O)N[C@H](CCCCNC(=O)CCc3cn(CCOCCOCCOCCN(CCOCCOCCOCCC(=O)N[C@H]4CSCCC(=O)N5CN6CN(C5)C(=O)CCSC[C@H](NC(=O)[C@@H](CC(=O)O)NC(=O)[C@H](Cc5cccc7ccccc57)NC(=O)[C@@H]5CCCN5C4=O)C(=O)N[C@@H](CCSC)C(=O)N[C@@H](CCCCNC(=N)N)C(=O)N[C@@H](CC(=O)O)C(=O)N[C@@H](Cc4c[nH]c5ccccc45)C(=O)N[C@@H](CO)C(=O)N[C@@H]([C@@H](C)O)C(=O)N4CCC[C@H]4C(=O)N4C[C@H](O)C[C@H]4C(=O)N[C@@H](Cc4c[nH]c5ccccc45)C(=O)N[C@H](C(N)=O)CSCCC6=O)CCOCCOCCOCCn4cc(CCC(=O)NCCCC[C@H]5NC(=O)[C@H](CCC(=O)O)NC(=O)[C@@H]6CCCN6C(=O)[C@H](CC(C)(C)C)NC(=O)[C@@H](NC(C)=O)CSCCC(=O)N6CN7CN(C6)C(=O)CCSC[C@H](NC(=O)[C@H](Cc6ccc(O)cc6)NC(=O)[C@@H]6CCCN6C5=O)C(=O)N[C@@H](Cc5ccccc5)C(=O)N[C@@H](C)C(=O)N[C@@H](CCC(=O)O)C(=O)N5CCC[C@H]5C(=O)N[C@@H](Cc5ccc(O)cc5)C(=O)N[C@@H](CCCC)C(=O)N[C@H](C(N)=O)CSCCC7=O)nn4)nn3)C(=O)N3CCC[C@H]3C(=O)N[C@@H](Cc3ccc(O)cc3)C(=O)N2)C(=O)CCSC[C@@H](C(N)=O)NC1=O` [BCY12487], the Emax [1] is reported as 12 fold induction over background.

Work on `CCCC[C@@H]1NC(=O)[C@H](Cc2ccc(O)cc2)NC(=O)[C@@H]2CCCN2C(=O)[C@H](CC(=O)O)NC(=O)[C@H](C)NC(=O)[C@H](Cc2ccccc2)NC(=O)[C@@H]2CSCCC(=O)N3CN(CN(C3)C(=O)CCSC[C@@H](C(=O)N[C@@H](C)C(N)=O)NC1=O)C(=O)CCSC[C@H](NC(C)=O)C(=O)N[C@@H](CC(C)(C)C)C(=O)N1CCC[C@H]1C(=O)N[C@@H](CCC(=O)O)C(=O)N[C@H](CCCCNC(=O)CCc1cn(CCOCCOCCOCCN(CCOCCOCCOCCC(=O)NCCCC[C@H]3NC(=O)[C@H](Cc4cccc5ccccc45)NC(=O)[C@@H]4CCCN4C(=O)[C@@H](NC(C)=O)CSCCC(=O)N4CN5CN(C4)C(=O)CCSC[C@H](NC3=O)C(=O)N[C@@H](CCSC)C(=O)N[C@@H](CCCCNC(=N)N)C(=O)N[C@@H](CC(=O)O)C(=O)N[C@@H](Cc3c[nH]c4ccccc34)C(=O)N[C@@H](CO)C(=O)N[C@@H]([C@@H](C)O)C(=O)N3CCC[C@H]3C(=O)N3C[C@H](O)C[C@H]3C(=O)N[C@@H](Cc3c[nH]c4ccccc34)C(=O)N[C@H](C(N)=O)CSCCC5=O)CCOCCOCCOCCn3cc(CCC(=O)NCCCC[C@H]4NC(=O)[C@H](CCC(=O)O)NC(=O)[C@@H]5CCCN5C(=O)[C@H](CC(C)(C)C)NC(=O)[C@@H](NC(C)=O)CSCCC(=O)N5CN6CN(C5)C(=O)CCSC[C@H](NC(=O)[C@H](Cc5ccc(O)cc5)NC(=O)[C@@H]5CCCN5C4=O)C(=O)N[C@@H](Cc4ccccc4)C(=O)N[C@@H](C)C(=O)N[C@@H](CC(=O)O)C(=O)N4CCC[C@H]4C(=O)N[C@@H](Cc4ccc(O)cc4)C(=O)N[C@@H](CCCC)C(=O)N[C@H](C(=O)N[C@@H](C)C(N)=O)CSCCC6=O)nn3)nn1)C(=O)N1CCC[C@H]1C(=O)N[C@@H](Cc1ccc(O)cc1)C(=O)N2` [BCY12490] yielded an EC50 [2] of 0.23 nM.

In the case of `CCCC[C@@H]1NC(=O)[C@H](Cc2ccc(O)cc2)NC(=O)[C@@H]2CCCN2C(=O)[C@H](CC(=O)O)NC(=O)[C@H](C)NC(=O)[C@H](Cc2ccccc2)NC(=O)[C@@H]2CSCCC(=O)N3CN(CN(C3)C(=O)CCSC[C@@H](C(=O)N[C@@H](C)C(N)=O)NC1=O)C(=O)CCSC[C@H](NC(C)=O)C(=O)N[C@@H](CC(C)(C)C)C(=O)N1CCC[C@H]1C(=O)N[C@@H](CCC(=O)O)C(=O)N[C@H](CCCCNC(=O)CCc1cn(CCOCCOCCOCCN(CCOCCOCCOCCC(=O)N[C@H]3CSCCC(=O)N4CN5CN(C4)C(=O)CCSC[C@H](NC(=O)[C@@H](CC(=O)O)NC(=O)[C@H](Cc4cccc6ccccc46)NC(=O)[C@@H]4CCCN4C3=O)C(=O)N[C@@H](CCSC)C(=O)N[C@@H](CCCCNC(=N)N)C(=O)N[C@@H](CC(=O)O)C(=O)N[C@@H](Cc3c[nH]c4ccccc34)C(=O)N[C@@H](CO)C(=O)N[C@@H]([C@@H](C)O)C(=O)N3CCC[C@H]3C(=O)N3C[C@H](O)C[C@H]3C(=O)N[C@@H](Cc3c[nH]c4ccccc34)C(=O)N[C@H](C(N)=O)CSCCC5=O)CCOCCOCCOCCn3cc(CCC(=O)NCCCC[C@H]4NC(=O)[C@H](CCC(=O)O)NC(=O)[C@@H]5CCCN5C(=O)[C@H](CC(C)(C)C)NC(=O)[C@@H](NC(C)=O)CSCCC(=O)N5CN6CN(C5)C(=O)CCSC[C@H](NC(=O)[C@H](Cc5ccc(O)cc5)NC(=O)[C@@H]5CCCN5C4=O)C(=O)N[C@@H](Cc4ccccc4)C(=O)N[C@@H](C)C(=O)N[C@@H](CC(=O)O)C(=O)N4CCC[C@H]4C(=O)N[C@@H](Cc4ccc(O)cc4)C(=O)N[C@@H](CCCC)C(=O)N[C@H](C(=O)N[C@@H](CCCCNC(=O)c4ccc(-c5c7ccc(=N)c(S(=O)(=O)O)c-7oc7c(S(=O)(=O)O)c(N)ccc57)c(C(=O)O)c4)C(N)=O)CSCCC6=O)nn3)nn1)C(=O)N1CCC[C@H]1C(=O)N[C@@H](Cc1ccc(O)cc1)C(=O)N2` [BCY13583], the Emax [1] is reported as 63 fold induction over background.
